Results published in patent US9650405B2, “Modified sophorolipids as oil solubilizing agents” (Polytechnic Institute of New York University, priority 2010, dated 2017).
Several values for one entry are separate records, joined by “and”; a condition that tells them apart may be missing. Equal values may be shown once.

Columns and labels:
[1] = Solubility of MSLs in water
Description: If the material precipitates upon cooling or was to some extent insoluble, the insoluble material was separated by filtration, dried and weighed.

[2] = Emulsion type: dilution test and oil soluble dye staining; assay type: physicochemical; settings: 2%-by-weight relative to water phase, oil/water 5/5 and 7/3
Experimental: In this test the emulsion is diluted either with oil (O) or water (W). If the emulsion is O/W type and it is diluted with water, it will remain stable as water is the dispersion medium. However, if the emulsion is O/W type and it is diluted with oil, the emulsion will break as oil and water are not miscible with each other. […] Emulsions of the O/W type have separated layers after dilution with pure oil but form a homogenous phase when diluted by water. Unless otherwise specified, the emulsion type formed by MSLs were oil in water.
In FIG. 13B, the tube on the left was diluted with 1 mL of oil whereas the tube on right was diluted with water. Visual observation of the tubes in FIG. 13B supports that the emulsions formed are indeed O/W emulsions.
Oil Red O was applied as an oil soluble dye and emerald green as water soluble dye in the process of emulsion preparation. Observations of emulsions were made before and after staining under optical microscope at 400× magnification (FIG. 14). […] The formation of O/W emulsions and not W/O emulsions with this set of MSL compounds would not be obvious to one skilled in the art. We believe that O/W emulsions are formed by this set of MSLs due to that large sophorose polar head groups requires relatively more space than the lipid tails and, therefore self-assemble into spherical type structures where disaccharide groups are locating outside the droplets.

[3] = Emulsion stability based on phase separation; assay type: physicochemical; settings: for emulsion layer volume-%, one month / emulsion layer volume-%, start: oil/water 5/5, 2%-by-weight; for emulsion layer volume-%, one month: one month at room temperature; for emulsion layer volume-%, start / emulsion layer, start: start of aging; for emulsion phase, one month / emulsion layer, start: oil/water 7/3, 2%-by-weight; for emulsion phase, one month: one month aging; for emulsion layer percentage: paraffin oil/water 5/5, 2%-by-weight emulsifier, after 24 hours at 25° C.
[4] = Emulsion droplet size distribution, Coulter LS 230 analyzer; assay type: physicochemical; settings: paraffin oil-to-water 7:3 v/v, 25° C.
Experimental: Emulsified oil droplet size (average and standard deviation) was measured after suitable dilution of the emulsion phase using a Coulter LS 230 analyzer. […] Relative to natural and lactonic SL, selected MSLs show improved properties as emulsifiers on paraffin oil.
After being aged for 3-months, emulsified oil droplet size (average and standard deviation) was measured after suitable dilution of the emulsion phase using a Coulter LS 230 analyzer and the results are listed in Table 5. […] However, increasing the surfactant concentration from 1 to 2% did result in substantially smaller emulsion-phase droplet sizes. […] This is evidence that MSL's can stabilize oil phases greatly decreasing their tendency to undergo coalescence. […] It follows that the results of 3-month aging studies support the utility of selected MSLs for formation and stabilization of oil-in-water emulsions of paraffin oil phases. One skilled in the art would expect that the ability of these MSLs to stabilize paraffin oil phases teaches that they would also stabilize oil phases of similar structure.

[5] = Emulsion viscosity measurement; assay type: physicochemical
Experimental: Viscosity was measured at 25° C. with increasing shear rate from 1 S^−1 to 750 S^−1. The viscosity change was monitored for aging times up to 3 months. For all samples, the paraffin oil/water ratio is 7/3 and the surfactant concentrations studied were 0.5%, 1% to 2%-by-weight relative to the oil phase. FIG. 19 presents the viscosity change with shear rate for different aging times. […] The emulsion tested was prepared using 2%-by-weight SL-butyl ester relative to paraffin oil. Viscosity decreases with increased shear rate implying the emulsion follows shear shinning. Furthermore, viscosity decreased with increased storage time. […] This change is consistent with the small increase in oil phase particle size (1.7 to 2.1 μm) with aging from 1 day to 3-months (Tables 4 and 5).
Values of ηlow decreased with storage time to various extents that are dependent on the MSL compound used to stabilize the emulsion. […] The relative ability of different MSL structures to stabilize emulsions and thereby decrease the extent of decrease in viscosity as a function of aging time would not be predictable by one skilled in the art. The behavior as a function of MSL structure is related to emulsion dispersed phase droplet size. That is, the smaller the change in droplet size, the less decrease in emulsion viscosity occurs with increased aging time. Smaller changes in droplet size reflects the ability of the emulsifier to better stabilize particles. For example, the viscosity of the emulsion stabilized by SL-butyl amide decreased by 65% (from 344 Pas to 120 Pas) whereas the viscosity of the emulsion stabilized by SL-hexyl ester decreased by 20% (from 457 Pas to […]).
The viscosity was measured 24 hours after emulsion preparation. The viscosity increased with increasing surfactant concentration. Such behavior could not have been predicted by one skilled in the art without the teaching provided in this disclosure. The extent of viscosity change with surfactant concentration is related to the interfacial free energy at the droplet surface that reduces with the increase of surfactant concentration.

[6] = SL-esters; from earlier publication in Colloids and surfaces, 2004, 240, 75; cited from earlier work
[7] = oil/water 7/3, 2%-by-weight relative to paraffin oil, 25° C.
[8] = oil/water 7/3, 1% MSL, shear rate 1 S^−1

CCCCOC(=O)CCCCCCCC=CCCCCCCC(C)OC1OC(CO)C(O)C(O)C1OC1OC(CO)C(O)C(O)C1O (stereo not drawn) [Compound 8, SL-Butyl Ester]
Solubility [1]: <3000 µg/mL | emulsion type by Oil Red O staining [2]: O/W | emulsion layer volume-%, one month [3]: 50% | emulsion layer volume-%, start [3]: 65% | emulsion phase, one month [3]: 90% | emulsion layer, start [3]: 95% | emulsion layer percentage [3]: 55% | Average droplet size ([4]; 0.5 weight %, 24 hours): 2.5 ± 0.3 μm | Average droplet size ([4]; 0.5 weight %, aged 3-months): 3.5 ± 0.4 μm | Average droplet size ([4]; 1 weight %, 24 hours): 2.4 ± 0.3 μm | Average droplet size ([4]; 1 weight %, aged 3-months): 3.1 ± 0.5 μm | Average droplet size ([4]; 2 weight %, 24 hours): 1.7 μm and 1.7 ± 0.1 μm | Average droplet size ([4]; 2 weight %, aged 3-months): 2.1 μm and 2.1 ± 0.4 μm | emulsion viscosity at shear rate 1S^−1, after 3 months [5, 7]: 376 Pas | emulsion viscosity at shear rate 1S^−1, before aging [5, 7]: 465 Pas | viscosity decrease after 3 months ([5]; oil/water 7/3, 2%-by-weight, shear rate 1S^−1): 19.1% | CMC Range [6]: 7-9 10^−6M | MST (minimum surface tension) [6]: 34.5 mN/m

CCCCCCOC(=O)CCCCCCCC=CCCCCCCC(C)OC1OC(CO)C(O)C(O)C1OC1OC(CO)C(O)C(O)C1O (stereo not drawn) [Compound 16, SL-Hexyl Ester]
Solubility [1]: <5000 µg/mL | emulsion type by Oil Red O staining [2]: O/W | emulsion layer volume-%, one month [3]: 65% | emulsion layer volume-%, start [3]: 70% | emulsion phase, one month [3]: 85% | emulsion layer, start [3]: 95% | emulsion layer percentage [3]: 65% | Average droplet size ([4]; 0.5 weight %, 24 hours): 2.3 ± 0.4 μm | Average droplet size ([4]; 0.5 weight %, aged 3-months): 2.9 ± 0.2 μm | Average droplet size ([4]; 1 weight %, 24 hours): 2.1 ± 0.3 μm | Average droplet size ([4]; 1 weight %, aged 3-months): 2.5 ± 0.1 μm | Average droplet size ([4]; 2 weight %, 24 hours): 1.7 ± 0.2 μm | Average droplet size ([4]; 2 weight %, aged 3-months): 1.9 ± 0.1 μm | low shear emulsion viscosity, after aging period [5, 8]: 459 Pas | low shear emulsion viscosity, before aging [5, 8]: 457 Pas | viscosity decrease over the aging period [5, 8]: 20% | CMC Range [6]: 3-4 10^−6M | MST (minimum surface tension) [6]: 34.0 mN/m
